One data set can be described thus: Cell viability (MTT). The conditions noted are these: human.
The subject of another data set is CD74. Nature of the data set: Cell-based ELISA for constitutive CD74 expression. More on the design: species or system human.
Setting [1] is: NCI-N87 gastric carcinoma cells.
[2] abbreviates: 4 µM, 48 h, NCI-N87 cells; mean ± average deviation.
The mark [3] stands for this setting: NCI-N87 cells, 48 h; mean of duplicate experiments; unit printed in b25 only; read-out: IC50 (50% inhibitory concentration) for constitutive CD74 expression.
The mark [4] stands for this setting: 20 µM, 48 h, NCI-N87 cells; mean ± average deviation.
The mark [5] stands for this setting: 100 µM, 48 h, NCI-N87 cells; mean ± average deviation.

The source of these data is paper PMC2533715, “Suppressive Effects of Selected Food Phytochemicals on CD74 Expression in NCI-N87 Gastric Carcinoma Cells” (Journal of Clinical Biochemistry and Nutrition, 2008).

Where two headings read alike, the source gives them in different places.

Usually CC50 stands for the concentration at which the toxic effect on the cells reaches its halfway point. Lower therefore signals greater toxicity to the cells. In general, viability refers to the share of living cells, or the viability signal relative to a control. A low value points to more harm to the cells. In the data set “Cell viability (MTT)” (setting [1]), `C=C[C@H](OC(C)=O)c1ccc(OC(C)=O)cc1` [ACA, 1'-acetoxychavicol acetate] had a CC50 at 48 h of 25 µM; a viability at 48 h, 4 µM of 92 ± 3.4%; a viability at 48 h, 20 µM of 20 ± 0.2%; a viability at 48 h, 100 µM of 6.1 ± 0.3%. In addition, the “IR (%) inhibition rate of CD74 expression” value (from here on “IR (%) inhibition rate”) in the data set on CD74 (setting [2]) worked out at 16 ± 1.6%. Further, the IC50 in the data set with CD74 (setting [3]) is under 20 µM.

In the data set “Cell viability (MTT)” (setting [1]), `C=CCC/C(=N/OS(=O)(=O)O)S[C@@H]1O[C@H](CO)[C@@H](O)[C@H](O)[C@H]1O` [BUGLS, gluconapin] came in with a CC50 at 48 h of over 100 µM; a viability at 48 h, 4 µM of 88 ± 6.9%; a viability at 48 h, 20 µM of 80 ± 3.5%; a viability at 48 h, 100 µM of 79 ± 5.6%. Moreover, the “IR (%) inhibition rate” value in the data set on CD74 (setting [2]) is listed as “–15 ± 0.0%”. In addition, in the data set on CD74 (setting [4]), the “IR (%) inhibition rate” value was −19 ± 2.5%. Moreover, the “IR (%) inhibition rate” value in the data set on CD74 (setting [5]) is 4.0 ± 1.0%. Moreover, the IC50 in the data set with CD74 (setting [3]) is over 100 µM.

In the case of `C=CCCN=C=S` [BUITC, butenyl isothiocyanate], the cytotoxic concentration (CC50) at 48 h in the data set “Cell viability (MTT)” came to 81.5 µM. In addition, in “Cell viability (MTT)” (setting [1]), the viability at 48 h, 4 µM was 71 ± 5.8%; the viability at 48 h, 20 µM turned out to be 73 ± 3.3%; the viability at 48 h, 100 µM turned out to be 44 ± 2.4%. Further, the “IR (%) inhibition rate” value with CD74 (setting [2]) was “–9.0 ± 0.4%”. Moreover, the “IR (%) inhibition rate” value in the data set with CD74 (setting [4]) stood at 2.3 ± 0.8%. The IC50 in the data set on CD74 (read-out: IC50 (50% inhibitory concentration) for constitutive CD74 expression; NCI-N87 cells, 48 h; mean of duplicate experiments; unit printed in b25 only) is over 100 µM.

The molecule `Cn1c(=O)c2c(ncn2C)n(C)c1=O` [Caffeine] gave a viability at 48 h, 4 µM in the data set “Cell viability (MTT)” (setting [1]) of 100 ± 2.6%. In “Cell viability (MTT)” (setting [1]), this molecule registered a viability at 48 h, 20 µM of 100 ± 2.2%. In “Cell viability (MTT)” (setting [1]), this molecule registered a viability at 48 h, 100 µM of 87 ± 1.9%. The “IR (%) inhibition rate” value was 10 ± 7.7% in the data set with CD74 (setting [2]), 22 ± 6.9% in the data set with CD74 (setting [4]) and 41 ± 9.2% with CD74 (setting [5]). Also, in the data set on CD74 (setting [3]), the IC50 is over 100 µM.

Consider `COc1cc(/C=C/C(=O)O)ccc1O` [Ferulic acid], for which, in the data set “Cell viability (MTT)”, the CC50 at 48 h is over 100 µM. Also, the viability at 48 h, 4 µM in the data set “Cell viability (MTT)” (setting [1]) came out at 96 ± 2.3%. Also, in the data set “Cell viability (MTT)” (setting [1]), the viability at 48 h, 20 µM was 93 ± 0.7%. For the same molecule, in “Cell viability (MTT)” (setting [1]), the viability at 48 h, 100 µM is 82 ± 5.9%. In addition, the “IR (%) inhibition rate” value is −5.1 ± 4.3% in the data set with CD74 (setting [2]), 15 ± 5.8% with CD74 (setting [4]) and 20 ± 3.8% in the data set on CD74 (setting [5]). Also, in the data set on CD74 (setting [3]), the IC50 is over 100 µM.

As to `O=C(O)c1cc(O)c(O)c(O)c1` [Gallic acid], the CC50 at 48 h in “Cell viability (MTT)” was over 100 µM. Besides, the viability at 48 h, 4 µM in “Cell viability (MTT)” (setting [1]) stood at 97 ± 0.2%. This molecule also had a viability at 48 h, 20 µM in the data set “Cell viability (MTT)” (setting [1]) of 73 ± 2.4%. In addition, the viability at 48 h, 100 µM in the data set “Cell viability (MTT)” (setting [1]) turned out to be 97 ± 2.1%. The “IR (%) inhibition rate” value is listed as 15 ± 2.4% with CD74 (setting [2]); 57 ± 3.7% in the data set with CD74 (setting [4]); 40–65% with CD74 (20 µM, 48 h, NCI-N87 cells; mean ± average deviation; listed as gallic acid); 47 ± 8.3% in the data set with CD74 (setting [5]). Moreover, in the data set with CD74 (setting [3]), the IC50 turned out to be 96.4 µM.

In the data set “Cell viability (MTT)” (setting [1]), `O=S(=O)(O)O/N=C(/CCc1ccccc1)S[C@@H]1O[C@H](CO)[C@@H](O)[C@H](O)[C@H]1O` [PEGLS, gluconasturtiin] registered a CC50 at 48 h of over 100 µM; a viability at 48 h, 4 µM of 99 ± 1.4%; a viability at 48 h, 20 µM of 88 ± 1.7%; a viability at 48 h, 100 µM of 90 ± 1.4%. For the same molecule, the “IR (%) inhibition rate” value in the data set on CD74 (setting [2]) was −11 ± 4.4%. Moreover, the “IR (%) inhibition rate” value in the data set with CD74 (setting [4]) was −25 ± 1.3%. Further, the “IR (%) inhibition rate” value in the data set with CD74 (setting [5]) is −13 ± 3.8%. In the data set with CD74 (setting [3]), the IC50 is over 100 µM.

`C[C@@H]1O[C@@H](OC[C@H]2O[C@@H](Oc3c(-c4ccc(O)c(O)c4)oc4cc(O)cc(O)c4c3=O)[C@H](O)[C@@H](O)[C@@H]2O)[C@H](O)[C@H](O)[C@H]1O` [Rutin] came in with a CC50 at 48 h in the data set “Cell viability (MTT)” of over 100 µM. Moreover, the viability at 48 h, 4 µM in “Cell viability (MTT)” (setting [1]) came out at 97 ± 1.2%. In addition, the viability at 48 h, 20 µM in the data set “Cell viability (MTT)” (setting [1]) came to 100 ± 1.1%. The viability at 48 h, 100 µM in the data set “Cell viability (MTT)” (setting [1]) came out at 80 ± 4.7%. In addition, the figures for the “IR (%) inhibition rate” value with CD74 (setting [2]), in the data set on CD74 (setting [4]) and in the data set with CD74 (setting [5]) were −4.3 ± 2.8%, −3.0 ± 0.0% and 11 ± 4.5%, respectively. For the same molecule, the IC50 in the data set on CD74 (setting [3]) was over 100 µM.
